Assays:
[1] = molecular target: T1, [^3 H]-Nitrobenzylthioinosine (NBI) binding, cerebral cortex tissue homogenate (Cavia porcellus, UniProt H0V4R7); assay: Inhibitory effect on [^3 H]-nitrobenzylthioinosine (NBI) binding; design: species or system guinea pig (Hartley strain, male); settings: guinea pig cerebral cortex; 1.5 nM [^3 H]-NBI; 25° C., 30 minutes; Cheng-Prusoff
T1 construct: The cerebral cortex of a male guinea pig of Hartley strain was homogenized; from tissue; host or cells: guinea pig (male, Hartley strain) cerebral cortex, washed membrane suspension
T1 sequence (H0V4R7 1-461): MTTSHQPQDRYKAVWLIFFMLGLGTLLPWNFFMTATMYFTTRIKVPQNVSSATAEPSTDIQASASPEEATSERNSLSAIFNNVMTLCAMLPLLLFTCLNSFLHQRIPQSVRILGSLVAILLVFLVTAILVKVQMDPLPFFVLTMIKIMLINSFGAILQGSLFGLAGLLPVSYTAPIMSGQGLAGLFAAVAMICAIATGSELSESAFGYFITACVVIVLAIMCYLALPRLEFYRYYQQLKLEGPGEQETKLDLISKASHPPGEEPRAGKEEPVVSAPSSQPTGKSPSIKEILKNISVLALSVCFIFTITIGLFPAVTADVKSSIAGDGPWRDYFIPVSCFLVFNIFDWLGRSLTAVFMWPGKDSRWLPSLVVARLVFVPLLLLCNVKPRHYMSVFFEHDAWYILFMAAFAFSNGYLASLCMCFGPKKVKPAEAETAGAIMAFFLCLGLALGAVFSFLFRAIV
Protocol: Test Example 2 Inhibitory Effect on [^3 H]-Nitrobenzylthioinosine (NBI) Binding (an indication of adenosine uptake inhibitory activity)
The cerebral cortex of a male guinea pig of Hartley strain was homogenized with an ice-cooled 50 mM tris-HCl buffer (pH 7.4) in an amount of 25 times (w/v) that of the tissue. The homogenate was centrifuged (30,000×g, 4° C., 20 mins.), and the supernatant was discarded. To the precipitate was added the same amount of the buffer, followed by homogenization and then centrifugation in the same manner as above. The obtained precipitate was suspended in 20 times as much buffer as the precipitate to prepare a suspension for testing.
To a DMSO solution of a test compound were added 1.5 nM of [^3 H]-NBI and 5 mg (wet basis) of the tissue homogenate, and the mixture was allowed to stand at 25° C. for 30 minutes. To the mixture was added 4 ml of an ice-cooled buffer, followed by rapid filtration with suction through a glass filter (GF/C, produced by Whatman Ltd.) or a Ready filter (produced by Beckman Co.) to stop the reaction. The filter was transferred to a scintillation vial, and after drying, Scintisol EX-H was added thereto. The radioactivity was measured with a liquid scintillation counter. The binding inhibitory activity was expressed in terms of an inhibition constant (Ki value) as calculated according to Cheng-Prusoff's formula.

[2] = system: [^3 H]-adenosine uptake by washed erythrocytes; assay: Inhibitory effect on [^3 H]-adenosine uptake (washed erythrocytes); assay type: cell-based, human (healthy male adult); settings: Erythrocyte; human washed erythrocytes; 1 hour preincubation at room temperature; 10 seconds uptake; read-out: [^3 H]-Adenosine Uptake Inhibition IC50
Protocol: Test Example 1 Inhibitory Effect on [^3 H]-Adenosine Uptake
[…] To 100 μl of an erythrocyte suspension (2.5×10^9 /ml) was added 10 μl of a 21% DMSO solution of a test compound. After allowing the suspension to stand at room temperature for 1 hour, 100 μl of a [^3 H]-adenosine solution was added thereto. Ten seconds later, 200 μl of a dilazep solution (1 mg/ml) was added to stop the reaction. The erythrocytes were dissolved in Triton X-100, and the uptake amount of ^3 H was measured with a liquid scintillation counter. The concentration of the test compound which inhibits the [^3 H]-adenosine uptake by 50% (IC50) was calculated.

[3] = system: ddY-strain male mice; assay: Acute toxicity test; assay type: in vivo; settings: mortality seven days after administration
Source text: Test Example 4 Acute Toxicity Test
A test compound was intraperitoneally or orally administered to groups of ddY-strain male mice weighing 20±1 g, each group consisting of three mice.

[4] = Inhibitory effect on ischemic paw edema in mice; assay type: in vivo, mouse (ddY-strain, male); settings: 30 mg/kg orally 1 hour before 20 min ischemia; for Paw Edema Supression Rate After 20 minutes: 20 minutes after blood recirculation; for Paw Edema Supression Rate After 40 minutes: 40 minutes after blood recirculation; for Paw Edema Supression Rate After 60 minutes: 60 minutes after blood recirculation
Source text: Test Example 3 Inhibitory Effect on Ischemic Paw Edema in Mice
Ischemia followed by reperfusion in the limb of a mouse induces paw edema due to membrane injury in which active oxygen is involved [Arzneim.-Forsch., 41, 469-474 (1991)]. In general, peroxidation of membrane lipid and calcium influx into cells play roles in ischemia-reperfusion injury [Life Science, 29, 1289-1295 (1981); Japan J. Pharmacol., 52, 553-562 (1990)]. It is active oxygen production that triggers these factors, and the source of active oxygen includes endothelial cells and leukocytes [J. Mol. Cell Cardiol., 20 (Suppl. II), 55-63 (1988); Blood, 73, 301-306 (1989)]. […] J. Physiol., 257, H1334-1339 (1989); J. Immunol., 135, 1366-1371 (1985)]. Accordingly, it is believed that a compound effective on an ischemic podedema model in mice as hereinafter described would provide a convenient and useful model for evaluating an adenosine uptake inhibitor.
Experiments were conducted in accordance with the method described in Arzneim.-Forsch., 41, 469-474 (1991). A test compound was suspended in water and orally given to grouped male mice of ddY-strain weighing 25 to 30 g at a dose of 30 mg/kg. One hour later, the left hind limb was bound with a rubber band for 20 minutes to cause ischemia, and 20, 40 and 60 minutes after blood recirculation, the paw thickness was measured with a pair of calipers (Digimatic Caliper manufactured by Mitsutoyo K.K.). The paw edema was determined as the difference in thickness between the left hind paw (ischemia-treated) and the non-treated right one. Each result was expressed in terms of percent suppression of edema in a test compound group on the basis of the edema in a control group.

Compound | Ki [1] | IC50 [2] | also measured
CCn1c(=O)n(C2CCN(c3ncnc4cc(OC)c(OC)cc34)CC2)c(=O)c2cc([N+](=O)[O-])ccc21 [Compound 2, 3-[1-(6,7-Dimethoxy-4-quinazolinyl)-4-piperidinyl]-1-ethyl-1,2,3,4-tetrahydro-6-nitro-2,4-dioxoquinazoline] | 18 nM | 103 nM | minimum lethal dose (MLD) i.p. [3]: > 100 mg/kg; minimum lethal dose (MLD) p.o. [3]: > 300 mg/kg; Paw Edema Supression Rate After 20 minutes [4]: 4.1 ± 2.98%; Paw Edema Supression Rate After 40 minutes [4]: 9.0 ± 3.79%; Paw Edema Supression Rate After 60 minutes [4]: 15.5 ± 4.09%
CCCn1c(=O)n(C2CCN(c3ncnc4cc(OC)c(OC)cc34)CC2)c(=O)c2cc([N+](=O)[O-])ccc21 [Compound 3, 3-[1-(6,7-Dimethoxy-4-quinazolinyl)-4-piperidinyl]-1,2,3,4-tetrahydro-6-nitro-2,4-dioxo-1-propyl-quinazoline] | 4.3 nM | 62 nM | minimum lethal dose (MLD) i.p. [3]: > 100 mg/kg; minimum lethal dose (MLD) p.o. [3]: > 300 mg/kg; Paw Edema Supression Rate After 20 minutes [4]: 4.8 ± 4.40%; Paw Edema Supression Rate After 40 minutes [4]: 11.6 ± 2.68%; Paw Edema Supression Rate After 60 minutes [4]: 14.9 ± 3.58%
CCOC(=O)Cn1c(=O)n(C2CCN(c3ncnc4cc(OC)c(OC)cc34)CC2)c(=O)c2cc([N+](=O)[O-])ccc21 [Compound 6, 3-[1-(6,7-Dimethoxy-4-quinazolinyl)-4-piperidinyl]-1-ethoxycarbonylmethyl-1,2,3,4-tetrahydro-6-nitro-2,4-dioxoquinazoline] | – | 462 nM | –
COc1cc2ncnc(N3CCC(n4c(=O)c5cc([N+](=O)[O-])ccc5n(Cc5ccccc5)c4=O)CC3)c2cc1OC [Compound 8, 1-Benzyl-3-[1-(6,7-dimethoxy-4-quinazolinyl)-4-piperidinyl]-1,2,3,4-tetrahydro-6-nitro-2,4-dioxo-quinazoline] | – | 295 nM | –
COc1cc2ncnc(N3CCC(n4c(=O)[nH]c5ccc([N+](=O)[O-])cc5c4=O)CC3)c2cc1OC [Compound 24, 3-[1-(6,7-Dimethoxy-4-quinazolinyl)-4-piperidinyl]-1,2,3,4-tetrahydro-6-nitro-2,4-dioxoquinazoline] | 15 nM | 38 nM | –

Second part, led by results:

Ki [1] | IC50 [2] | Compound | also measured
18 nM | 42 nM | COc1cc2ncnc(N3CCC(n4c(=O)c5cc([N+](=O)[O-])ccc5n(C)c4=O)CC3)c2cc1OC [Compound 1, 3-[1-(6,7-Dimethoxy-4-quinazolinyl)-4-piperidinyl]-1,2,3,4-tetrahydro-1-methyl-6-nitro-2,4-dioxoquinazoline] | –
6.9 nM | 54 nM | COc1cc2ncnc(N3CCC(n4c(=O)c5cc(Br)ccc5n(C)c4=O)CC3)c2cc1OC [Compound 45, 6-Bromo-3-[1-(6,7-dimethoxy-4-quinazolinyl)-4-piperidinyl]-1,2,3,4-tetrahydro-1-methyl-2,4-dioxo-quinazoline] | –
12 nM | 54 nM | COc1cc2ncnc(N3CCC(n4c(=O)c5cc(C)ccc5n(C)c4=O)CC3)c2cc1OC [Compound 50, 3-[1-(6,7-Dimethoxy-4-quinazolinyl)-4-piperidinyl]-1,2,3,4-tetrahydro-1,6-dimethyl-2,4-dioxoquinazoline] | –
– | 171 nM | CCCc1ccc2c(c1)c(=O)n(C1CCN(c3ncnc4cc(OC)c(OC)cc34)CC1)c(=O)n2C [Compound 55, 3-[1-(6,7-Dimethoxy-4-quinazolinyl)-4-piperidinyl]-1,2,3,4-tetrahydro-1-methyl-2,4-dioxo-6-propyl-quinazoline] | –
– | 88 nM | COc1cc2ncnc(N3CCC(n4c(=O)c5cc(C(C)=O)ccc5n(C)c4=O)CC3)c2cc1OC [Compound 63, 6-Acetyl-3-[1-(6,7-dimethoxy-4-quinazolinyl)-4-piperidinyl]-1,2,3,4-tetrahydro-1-methyl-2,4-dioxo-quinazoline] | –
11 nM | 157 nM | COc1ccc2c(c1)c(=O)n(C1CCN(c3ncnc4cc(OC)c(OC)cc34)CC1)c(=O)n2C [Compound 69, 3-[1-(6,7-Dimethoxy-4-quinazolinyl)-4-piperidinyl]-1,2,3,4-tetrahydro-6-methoxy-1-methyl-2,4-dioxo-quinazoline] | –
– | 127 nM | COc1cc2nc(C)nc(N3CCC(n4c(=O)c5cc(C)ccc5n(C)c4=O)CC3)c2cc1OC [Compound 80, 3-[1-(6,7-Dimethoxy-2-methyl-4-quinazolinyl)-4-piperidinyl]-1,2,3,4-tetrahydro-1,6-dimethyl-2,4-dioxo-quinazoline] | –
